From a melting point compilation (Tetko et al.; mined from patent text by program, amines drawn as free bases though some values may be those of a salt)

melting point [°C]	SMILES
189 to 190	CC(=O)c1ccc(NC(=O)NCCN(CCNC(=O)Nc2ccc(C(C)=O)cc2)CCNC(=O)Nc2ccc(C(C)=O)cc2)cc1
127	Fc1ccc(Cn2c(NC3CCN(CCNc4nccs4)C3)nc3ccccc32)cc1 (configuration not stated)
116 to 118	CN(c1cccnc1Cl)S(=O)(=O)c1ccccc1[N+](=O)[O-]
99 to 101	CSC(=C[N+](=O)[O-])NCC(O)c1cccc(C)c1 (configuration not stated)
204 to 205	N#Cc1sc2cc([N+](=O)[O-])ccc2c1Cl
112 to 114	COc1cc(C#N)ccc1C=O
187 to 188	O=C(O)c1cc(C#Cc2ccccc2)cc2c1NCCC2
162 to 165	CC1(C)CC(NCCCCCCC(=O)O)CC(C)(C)N1
126 to 127	CN1C(=O)Cc2cc3ccccc3cc2S1(=O)=O
129 to 130	CC(C)(CO)c1cc(C#N)ccc1O
187 to 191	O=C1Nc2ccc3ccccc3c2CCC1(Cl)Cl
208 to 209	O=S(=O)(c1ccc(Cl)cc1)C(c1ccncc1)C1CCOCC1 (configuration not stated)
169 to 171	CC(C)CC(=O)Nc1cccc(-c2ccnc3c(-c4cccc(Cl)c4)cnn23)c1
215	c1ccc2oc3cnnc-3cc2c1
105 to 108	Cn1ncc2c1CC(C)(C)c1cnn(C)c1-2
154 to 155	CC(=O)c1cc(Cl)c2c(c1Cl)C(C)(C)CCS2(=O)=O
232 to 234	Cc1ccccc1-c1c(NC(=O)Nc2ccc(F)cc2F)c(=O)oc2ccc(C)c(C)c12
185	CCCC1=C(C(=O)OCC)C(c2c(F)cccc2F)c2c[nH]nc2N1 (configuration not stated)
243	COc1ccc2ncnc(N3CCc4ccc(Cl)cc43)c2c1
186	Cc1cc(-n2c(=O)cc(C(F)(F)F)[nH]c2=O)c(F)cc1Br
188	CCCCCCc1cc2c(=O)c(-c3ccc(OC)cc3)coc2cc1O
101 to 103	COC(=O)C1(CCCN2CCN(c3ccccc3)CC2)Sc2ccccc2CCC1=O (configuration not stated)
94.5 to 96.5	CCN(CC)CCNc1ncc2cc(-c3c(Cl)cccc3Cl)c(NC(=O)NC(C)(C)C)nc2n1
54 to 56	C=CCc1c(OCC(O)CSCCO)ccc(C(C)=O)c1O (configuration not stated)

melting point [°C]	SMILES
122 to 124	O=C(Cn1nccc1-c1ccc(Oc2ccc(F)cc2)cc1)N1CCOCC1
126 to 129	O=C1c2ccccc2C(=O)N1CCCC=NNc1ccc(S(=O)(=O)Nc2ccccc2)cc1
69 to 71	C=CCc1c(C(C)C)nc(C(C)C)c(CO)c1-c1ccc(F)cc1
68 to 70	CCOC(=O)c1ccc(/C=C/C2CCCN2C(=O)OC(C)(C)C)cc1 (configuration not stated)
44 to 45	CC1(c2ccc(I)cc2)CO1 (configuration not stated)
159 to 160	COc1cc(C=O)cc(OC)c1NC=O
173 to 175	COC(=O)C1CCc2oc3cc(OC)ccc3c2C1=O (configuration not stated)
101 to 102	CCc1cc2c(OC)ccc(C)c2nc1Cl
121 to 124	CCC(NC(=O)Cc1ccccc1)C(=NNC(N)=S)c1ccccc1 (configuration not stated)
145	CC1(C)CCCC(C)(C)N1OCc1ccccc1C(=O)ON1C(=O)CCC1=O
145 to 146	Cc1ccnc(C(C#N)Sc2nc(N)cc(Cl)n2)c1 (configuration not stated)
41.6 to 43	CCN(CC)c1nc(C)nc2scnc12
182	Cn1c(Sc2cc(C(F)(F)F)ccc2C#N)n[nH]c1=O
75.1 to 76.2	CCOC(=O)COc1c(C=O)cccc1OC
272 to 274	Cn1c2cc(Cl)ccc2c2c(Cl)nc(-c3ccncc3)nc21
125 to 127	Cc1ccc(Cl)cc1NS(=O)(=O)c1cc(S(=O)(=O)Nc2cc(Cl)ccc2C)c2ccccc2c1
176 to 178	CC(C)CN1C(=O)COc2cc(F)c(N)cc21
71 to 74	O=C(O)[C@@H]1CCCC[C@H]1C(=O)CCS (relative stereo)
61	CCc1noc(-c2cn(-c3ccccc3OCCc3ccccc3)cn2)n1
152 to 153	O=C(O)c1cn(Cc2ccc(OCc3ccccc3)cc2)nc1-c1ccccc1
40	CCCCCCCCn1nnnc1I
112	COc1nc(SC)nc(OC)c1C=CC(C)=O
121 to 123	FC(F)(F)Oc1ccc(-c2ccc(C=CCBr)cc2)cc1
163	CC(C)(C)c1ccc(S(=O)(=O)CC(=O)N=C=O)cc1

melting point [°C]	SMILES
114 to 115	C=CCNc1nc(NCC=C(C)C)c2scc(C)c2n1
157 to 158	COC(=O)c1ccc(CN2CCN(c3nc(C)cs3)C2=O)cc1
267 to 268	O=c1[nH]c2cc(Cl)ccc2c(=O)n1S(=O)(=O)c1ccc(Cl)cc1F
173 to 175	COc1cc(OC)c(C)c(C(=O)NCC23CC4CC(CC(Cl)(C4)C2)C3)c1
210 to 214	O=C(Nc1ccccc1)Nc1nc(=O)n(S(=O)(=O)c2ccccc2)cc1F
88 to 89	COc1ccc(C(C)=O)c2c1CCN2C(C)=O
177 to 179	CCc1c([N+](=O)[O-])c(C(N)=O)nn1C1CN(CC)C1
235 to 239	C[C@@H](Nc1c(NCc2ccc(Cl)cc2Cl)c(=O)c1=O)C(C)(C)C
280 to 281	CC(=O)Nc1nc(-c2ccc(C(C)(C)C)cc2)c(-c2ccncc2)s1
41.8 to 44.4	CN(C)C(=O)[C@@H]1CS[C@@H](CS)C1
161 to 163	OCc1cc(Cl)cc(CO)c1O
156 to 158	O=C(O)CCOc1cccc2c1CCc1sc(SC(c3ccccc3)c3ccccc3)nc1-2
147 to 149	CN(C)CCN1C(=O)c2cscc2N(C)c2ccccc21
95 to 96	CC(C)(CCCCCCCCCCCC(C)(C)C(=O)O)C(=O)O
264 to 266	CSc1[nH]n(-c2c(Cl)cc(Cl)cc2Cl)c2nc(Cc3cccc(O)c3)nc(=O)c1-2
147 to 149	OC(CNCCNc1ccc(Cl)nn1)COc1ccccc1 (configuration not stated)
179 to 181	COc1ccc(C(=O)Nc2ccc(F)cc2)cc1NCc1cccs1
112 to 113	CCCCCCC(=N)NC(=S)Nc1ccc(Cl)cc1
212 to 213	CC(=O)N1CCN(c2ccc(Nc3nccc(-c4sc(NCCc5ccccc5)nc4C)n3)cc2)CC1
102 to 104	O=C1NC(=O)C(Cc2ccc(OCCC3OCCO3)cc2)S1 (configuration not stated)
92 to 93	Cn1nc(CC2CC2)c2sc(Cc3cccc(C(F)(F)F)c3)c(O)c2c1=O
92 to 94	CN(C(=O)c1ccc2c(c1)nc(NC(=O)c1cccs1)n2CCCOC(=O)c1cccs1)C1CCCCC1
178 to 179	CCCCc1nc(Cl)c(C=O)n1Cc1ccc(-c2ccccc2-c2n[nH]c(=O)o2)cc1
110 to 111	COc1cc(Br)c(OC)c2c1C=CCC2

melting point [°C]	SMILES
150	COc1cccc(-c2ccc(C(=O)N(Cc3cccc(O)c3)C3CC3)s2)c1F
69 to 72	CC1CCN=C2N1c1ccc(Br)cc1C21OCCCO1 (configuration not stated)
172	Cn1cc(-c2ccccc2)c(=O)c(-c2cccc(Cl)c2)c1
106 to 108	CC(=O)c1cn2c3c(cccc13)CCC2
167 to 168	N#Cc1ccc2c(c1)C(=C(Cl)Cl)OC(=C(Cl)Cl)O2
242	Cc1cc(-c2ccc(C(F)(F)F)c(C)c2)nc(-c2cccc(-c3ccc(S(N)(=O)=O)s3)c2)n1
172	CC(C)(C)C(=O)Nc1c(F)cc(F)cc1Oc1ccc(C2CC(=O)NC(=O)C2)cc1
149 to 151	CCNC(=O)OC1CC(C)(C)N(OC(=O)NCC)C(C)(C)C1
208 to 211	CC(=O)c1sc(=O)[nH]c1C
209 to 210	CCCCCCCCCCCC=CC(O)C(COC1OC(CO)C(O)C(O)C1O)NC(=O)CCCCCCCCCCCCCCCCC (configuration not stated)
91 to 94	CCC1(CC)C(=O)N(C(C)(C)C)CC(C)(C)N1C(C)c1ccc(C(C)=O)cc1 (configuration not stated)
60 to 68	COC(=O)c1ccc(OCC(C)NCC(O)c2ccc(O)c(CO)c2)cc1 (configuration not stated)
172 to 174	COc1ccc(C2=NN(c3cnc4ccccc4n3)C(=O)[C@H]3CC=CC[C@@H]23)cc1Cl (relative stereo)
144	CN(C)Cc1ccc(SC2CCN(C(=O)OCc3ccccc3)CC2)cc1
167 to 168	CN1c2ccc(C#CCO)cc2C(O)=C(C(=O)NCc2ccc(Cl)cc2)S1(=O)=O
121 to 122	COc1ccc(-n2nc(OC(C)C)cc2-c2ccc(OCCNS(C)(=O)=O)cc2)cn1
282 to 285	COc1cc(C(=O)NCC(=O)O)ccc1NS(=O)(=O)c1sc2ccc(Cl)cc2c1C
197 to 199	CC=CC(=O)c1oc2c(-c3ccc(F)cc3)c(-c3ccc(S(C)(=O)=O)cc3)nn2c1C
120	Cc1cc(-n2ccnc2)c2cccc(OCc3c(Cl)ccc(S(=O)(=O)N4CCC[C@H]4C(=O)NCCc4ccncc4)c3Cl)c2n1
158 to 159	COc1ccc(C(=O)c2ccc(OCC(=O)O)c(Cl)c2Cl)cc1
248 to 250	CCCCc1ncc(/C=C2/C(=O)NC(=O)N2C)n1Cc1ccc(C(=O)O)cc1
238 to 240	CC(=O)Nc1sc([N+](=O)[O-])cc1C(=O)O
55 to 60	CC(CN1C(=O)C2(COc3cc4c(cc32)CCO4)c2ccccc21)OCc1ccc(F)cc1 (configuration not stated)

SMILES	melting point [°C]
CCCOCC1CC2CCC13CN(CCC)CCC31c3cccc(O)c3OC21 (configuration not stated)	123 to 124
COc1ccc(Cn2cc(C(=O)C(=O)NC3=CC(=O)OC3)c3ccccc32)cc1	265 to 267
CC1CCC2CC(=O)N(Cc3ccccc3)C3OC4(C)CCC1C23OO4 (single isomer, unassigned; (-))	177 to 179
CCCc1ncc(CN2CC=C(c3ccc(F)cc3)CC2)c(N)n1	142 to 145
O=c1[nH]c2ccc(F)cc2c(=O)n1CCCN1CC=C(c2ccc(Cl)cc2)CC1	192 to 193
O=c1[nH]sc2c1c(=O)c1cc(F)c(N3CCNCC3)cc1n2C1CC1	> 275
CC(Cc1ccc(OCc2ccccc2)cc1)NCC(O)c1cc2ccccc2o1 (configuration not stated)	111 to 122
